Experimental data from US20220389008A1, “4-QUINOLINONE ANTIBACTERIAL COMPOUNDS” (Janssen Sciences Ireland Unlimited Company, priority 2019, published 2022).
Like-named read-outs stand apart in the source and are kept apart here.

What was measured:
[1] = tested on: Mycobacterium tuberculosis strain H37Rv ΔctaE-ΔqcrCAB; assay: microbe, parasite or virus in culture; type: cell-based; conditions: 240 h
[2] = tested on: Mitochondrial toxicity (Glu/Gal); assay: Mitochondrial toxicity (Glu/Gal) assay; type: cell-based; set-up: key to Score: “negative” means that in the test, it was found to have low mitotoxicity (and hence no mitotoxicity alerts); “positive” means that there were some mitotoxicity alerts; “inconclusive” means that no accurate conclusion could be drawn; conditions: for Score: mitotoxicity score; for Δ IC50,glu/IC50,gal: ratio glu/gal
From the text: The compounds of the invention/examples may have advantages associated with in vitro potency, kill kinetics (i.e. bactericidal effect) in vitro, PK properties, food effect, safety/toxicity (including liver toxicity, coagulation, 5-LO oxygenase), metabolic stability, Ames II negativity, MNT negativity, aqueous based solubility (and ability to formulate) and/or cardiovascular effect e.g. on animals (e.g. anesthetized guinea pig). The data below that was generated/calculated may be obtained using standard methods/assays, for instance that are available in the literature or which may be performed by a supplier (e.g. Microsomal Stability Assay—Cyprotex, Mitochondrial toxicity (Glu/Gal) assay—Cyprotex, as well as literature CYP cocktail inhibition assays).

[3] = tested on: rCaCh; assay: CVS / cardio tox rCaCh; type: binding, rat
[4] = tested on: rNaCh; assay: CVS / cardio tox rNaCh; type: binding, rat; conditions: read-out: Cardio tox rNaCH (IC50)
[5] = molecular target: hERG (Homo sapiens, UniProt Q12809); assay: CVS / cardio tox hERG (DOF); type: binding; conditions: DOF; read-out: Cardio tox hERG(DOF) (IC50)
[6] = tested on: Mycobacterium tuberculosis (strain H37Ra), cyt bd; conditions: Mtb H37Ra; for (i) % OCR after cyt bd inhibitor: test compound 10 μM added after Compound X 0.9 μM; for (ii) % OCR after cccp: test compound 10 μM after Compound X 0.9 μM, then CCCP 1 μM
[7] = galactose medium, read-out: IC50, gal
[8] = glucose medium, read-out: IC50, glu

Chain of hERG (Q12809 whole entry): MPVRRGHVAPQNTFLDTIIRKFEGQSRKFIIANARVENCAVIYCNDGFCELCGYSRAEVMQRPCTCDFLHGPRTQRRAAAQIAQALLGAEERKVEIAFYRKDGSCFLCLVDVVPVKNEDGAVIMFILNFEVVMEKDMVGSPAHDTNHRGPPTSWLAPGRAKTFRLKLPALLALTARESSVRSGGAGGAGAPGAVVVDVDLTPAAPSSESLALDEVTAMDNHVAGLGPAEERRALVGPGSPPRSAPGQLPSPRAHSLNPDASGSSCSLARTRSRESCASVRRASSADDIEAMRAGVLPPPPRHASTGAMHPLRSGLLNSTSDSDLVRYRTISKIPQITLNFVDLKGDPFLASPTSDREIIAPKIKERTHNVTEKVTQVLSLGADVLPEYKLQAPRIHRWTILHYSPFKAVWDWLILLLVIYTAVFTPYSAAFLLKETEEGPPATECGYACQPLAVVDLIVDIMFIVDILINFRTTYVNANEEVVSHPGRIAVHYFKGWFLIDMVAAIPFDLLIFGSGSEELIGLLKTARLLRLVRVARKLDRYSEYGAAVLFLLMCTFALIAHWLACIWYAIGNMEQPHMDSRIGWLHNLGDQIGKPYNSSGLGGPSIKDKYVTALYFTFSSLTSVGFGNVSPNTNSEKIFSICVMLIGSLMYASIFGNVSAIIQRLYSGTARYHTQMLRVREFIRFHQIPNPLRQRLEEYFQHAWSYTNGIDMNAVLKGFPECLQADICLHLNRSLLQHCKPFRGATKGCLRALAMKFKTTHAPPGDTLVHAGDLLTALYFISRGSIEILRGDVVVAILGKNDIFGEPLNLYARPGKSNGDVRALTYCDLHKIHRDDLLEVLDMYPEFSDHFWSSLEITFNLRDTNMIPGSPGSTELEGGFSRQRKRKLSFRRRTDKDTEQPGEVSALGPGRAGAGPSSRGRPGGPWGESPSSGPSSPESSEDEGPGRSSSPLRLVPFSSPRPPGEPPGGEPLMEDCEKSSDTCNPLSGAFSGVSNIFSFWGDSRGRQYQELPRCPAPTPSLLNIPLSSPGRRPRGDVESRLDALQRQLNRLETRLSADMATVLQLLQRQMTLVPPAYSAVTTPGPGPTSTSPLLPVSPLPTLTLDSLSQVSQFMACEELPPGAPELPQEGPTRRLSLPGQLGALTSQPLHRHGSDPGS

| SMILES | IC50 [1] [µM] | IC50 [2, 7] [µM] | IC50 [2, 8] [µM] | Score [2] | Δ IC50,glu/IC50,gal [2] | Cardio tox rCaCh IC50 (µM) [3] | IC50 [4] [µM] | IC50 [5] [µM] | (i) % OCR after cyt bd inhibitor [6] | (ii) % OCR after cccp [6] |
| --- | --- | --- | --- | --- | --- | --- | --- | --- | --- | --- |
| Cc1c(-c2nc3ccc(-c4ccc(OC(F)(F)F)nc4)cn3n2)[nH]c2ccccc2c1=O [Compound 26] | 7.69 | 9.59 | 13.3 | negative | [x]1.39 | >10, >10, >10 | > 10 | > 10 | 71% | 116.7% |
| Cc1c(-c2nc3ccc(-c4cccc(F)c4)cn3n2)[nH]c2ccccc2c1=O [Compound 12] | 0.885 | 100 | 100 | negative | [x]0 | > 10 | > 10 | > 3.02 | 62.09% | 79.37% |
| Cc1c(-c2nc3ccc(-c4ccc(C(F)(F)F)cc4)cn3n2)[nH]c2ccccc2c1=O [Compound 4] | 1.25 | 50 | 50 | negative | [x]0 | > 10 | 2.3 | > 10 | 32.75% | 40.05% |
| Cc1c(-c2cn3cc(Oc4ccc(OC(F)(F)F)cc4)ccc3n2)[nH]c2ccccc2c1=O [Compound 44] | 9.75 | 58.5 | 47.8 | negative | 0.8 | 3.8 | 1.2 | 1.5 | 76% | 138.6% |
| Cc1c(-c2cn3cc(Cc4ccc(OC(F)(F)F)cc4)ccc3n2)[nH]c2ccccc2c1=O [Compound 63] | 76.2 | 96.8 | 200 | inconclusive | >1.7 | > 3.0 | 2.8 | > 10 | 85.8% | 157.9% |
| Cc1c(-c2nc3ccc(C(F)(F)F)cn3n2)[nH]c2ccccc2c1=O [Compound 19] |  | 100 | 100 | negative | [x]0 | >10, >10, >10 | > 10 | > 10 | 99.4% | 100.5% |
| Cc1c(-c2cc3cc(-c4ccc(OC(F)(F)F)cc4)ccn3c2)[nH]c2ccccc2c1=O [Compound 25] | 3.09 | 9.9 | 200 | positive | >20.2 | >10, >10, >10 | > 10 | > 10 | 65.2% | 114.3% |
| Cc1c(-c2nc3ccc(-c4nc(C(F)(F)F)cs4)cn3n2)[nH]c2ccccc2c1=O [Compound 18] | 1.88 | 15.8 | 23.4 | negative | [x]1.48 | > 10 | 1.51 | > 10 | 76.01% | 98.7% |
| Cc1c(-c2cc3ccc(-c4ccc(OC(F)(F)F)cc4)cn3c2)[nH]c2ccccc2c1=O [Compound 22] | 3.75 | 9.9 | 140 | positive | >13.3 | > 10 | 6.9 | > 10 | 82.7% | 109.8% |
| COc1ccc2[nH]c(-c3nc4ccc(-c5ccc(OC(F)(F)F)cc5)cn4n3)c(C)c(=O)c2c1Cl [Compound 80] | > 25 | 50 | 50 | negative | [x]0 |  |  |  | 122.15% | 180.98% |
| Cc1c(-c2nc3ccc(OC(F)(F)F)cn3n2)[nH]c2ccccc2c1=O [Compound 30] | 2.92 | 100 | 100 | negative | [x]0 |  |  |  | 93.8% | 120.2% |
| COc1ccc(-c2ccc3nc(-c4[nH]c5ccccc5c(=O)c4C)nn3c2)cc1 [Compound 90] | 1.49 | 200 | 200 | negative | [x]0 |  |  |  | 25,77% | 30,69% |
| Cc1c(-c2cc3ccc(-c4ccc(OC(F)(F)F)cc4)cn3n2)[nH]c2ccccc2c1=O [Compound 5] | 1.27 | 45.9 | 106 | inconclusive | [x]2.32 | >10, >10, >10 | > 10 | > 10 | 43.48% | 49.26% |
| Cc1c(-c2cn3ccc(Oc4ccc(OC(F)(F)F)cc4)cc3n2)[nH]c2ccccc2c1=O [Compound 29] |  | 53.7 | 79.7 | negative | 1.5 | 3.3 | 2.3 | ~9.1 | 64.6% | 118.5% |
| Cc1c(-c2nc3ccc(CN4CCC(C(F)(F)F)CC4)cn3n2)[nH]c2ccccc2c1=O [Compound 8] | 3.7 | 180 | 163 | negative | [x]0.91 |  |  |  | 82.67% | 59.43% |
| Cc1c(-c2nc3ccc(-c4cnc(C(F)(F)F)s4)cn3n2)[nH]c2ccccc2c1=O [Compound 45] | 5.96 | 20 | 20 | negative | [x]0 |  |  |  | 94.41% | 138.84% |
| Cc1c(-c2nc3ccc(Br)cn3n2)[nH]c2c(F)cc(F)cc2c1=O [Compound 57] | > 50 | 100 | 100 | negative | [x]0 |  |  |  | 102% | 149.2% |
| Cc1c(-c2nc3cc(Br)ccn3n2)[nH]c2ccccc2c1=O [Compound 39] | > 100 | 100 | 100 | negative | [x]0 |  |  |  | 110.6% | 133.8% |
| Cc1c(-c2nc3ccc(-c4nc(C(F)(F)F)no4)cn3n2)[nH]c2ccccc2c1=O [Compound 24] | 2.95 | 20 | 20 | negative | [x]0 |  |  |  | 99.13% | 113.29% |
| Cc1c(-c2nc3ccc(-c4cccc(CC(F)(F)F)c4)cn3n2)[nH]c2ccccc2c1=O [Compound 127] | 3.23 | 15.8 | 18.1 | negative | [x]1.14 |  |  |  | 49,62% | 65,3% |
| COc1cc(F)cc(-c2ccc3nc(-c4[nH]c5ccccc5c(=O)c4C)nn3c2)c1 [Compound 125] | 0.664 | 200 | 200 | negative | [x]0 |  |  |  | 45,66% | 64,44% |
| Cc1c(-c2nc3ccc(CC(F)(F)F)cn3n2)[nH]c2ccccc2c1=O [Compound 20] | 2.17 | 125 | 176 | negative | [x]1.41 |  |  |  | 78.5% | 102.86% |
| COc1cc2nc(-c3[nH]c4ccccc4c(=O)c3C)nn2cc1F [Compound 40] | > 100 | 200 | 200 | negative | [x]0 |  |  |  | 95.33% | 134.33% |
| Cc1c(-c2nc3cc(-c4cccc(OC(F)(F)F)c4)ccn3n2)[nH]c2ccccc2c1=O [Compound 28] | 10 | 58.7 | 100 | negative | [x]1.7 |  |  |  | 123.3% | 117.7% |
